The values that follow come from patent US12465582B2, “(S)-2-amino-6-((3-aminopropyl)amino)hexanoic acid (APL) for use in the treatment of non-alcoholic steatohepatitis (NASH), liver inflammation, hepatocellular ballooning, liver fibrosis and steatosis” (Temple University—Of The Commonwealth System Of Higher …, priority 2020, dated 2025).

What all share (type): in vivo
For test [1], the system named is Zucker fa/fa obese rats. The test can be described thus: Glucose tolerance test (GTT) in Zucker rat model of NASH. The settings on record: 100 mg/kg APL p.o. b.i.d., 78 days, **p<0.01. The source says:
Zucker fa/fa obese rats and Zucker Fa/fa lean rats (7-week old male animals obtained from Charles Rivers Laboratories, Wilmington, MA, USA) were maintained in individual cages (1 rat per cage to encourage sedentary activity) and had free access to standard rodent chow (Cat #5053, obtained from Labdiet, Saint Louis, MO) and water (filtered and packed using a Hydrapak system) for 7 days until the start of the experiment. Zucker fa/fa obese rats were randomly assigned to two groups: 1) vehicle p.o.b.i.d. (oral administration, twice a day) for 78 days (n=7); and 2) 100 milligram per kilogram (mg/kg) body weight APL (p.o.b.i.d.) for 78 days (n=8). Zucker Fa/fa lean rats (n=4) were administered vehicle (p.o.b.i.d.) for 78 days. Phosphate-buffered saline (PBS), which is the solution used to dissolve APL, was used as vehicle solution. APL powder was dissolved under sterile conditions with PBS at a concentration of 100 mg/mL; volumes were adjusted for each animal accordingly to their body weight. […]
At the conclusion of the experimental time period (78 days for rats and 130 days for mice), the animals were subjected to a glucose tolerance test (GTT) as follows. […] Glucose levels were measured at 0, 15, 30, 45, 60, and 120 minutes after glucose administration. Glucose was measured using the AlphaTRAK 2 glucometer from Abbott

Test [2] has as its system C57BL/6J mice fed high fat/high fructose diet (HFD). The test can be described thus: NAFLD Activity Score (NAS) in HFD DIO mouse model of NASH. The settings on record: 130 days. The procedure: C57BL/6J mice were maintained in cages (5 mice per cage) and had free access to standard rodent chow (Cat #5053, obtained from Labdiet, Saint Louis, MO) and water (filtered and packed using a Hydrapak system) for 5 days until the start of the experiment. The animals were then randomly assigned to three groups (n=5 for each group receiving different diets and treatments as shown in Table B for 130 days. Each treatment was administered p.o.b.i.d. The APL dosage was 200 mg/kg body weight. “HFD” is high fat/high fructose diet, as described in Example 1 “Chow” refers to standard rodent chow, as described in Example 1. Animals were fed ad libitum.
At the conclusion of the test period, the animals were humanely euthanized, and the livers were removed for histological analysis. Liver samples in formalin were allowed to fix for 48 hours, and processed into FFPE blocks after fixations. Slides were stained with hematoxylin and eosin (H&E). FIG. 6A is the representation of multiple images of hematoxylin & eosin (H&E) staining of liver sections.
The liver samples were evaluated for liver fat (steatosis), inflammation, and hypertrophy in accordance the NAS scoring system. The NAS scoring is depicted in FIG. 6B. The NAS score for mice in the HFD/vehicle-treated mice is increased in all the pathological parameters, when compared with the CHOW/vehicle-treated mice: macrovesicular steatosis, microvesicular steatosis, hepatic hypertrophy and inflammatory foci. […] Thus, APL attenuates hepatic steatosis, inflammation and hypertrophy in the liver, each pathognomic of liver damage and NASH.

Test [3] concerns 4-hydroxynonenal (4-HNE) in liver of Zucker (fa/fa) obese rats. Put plainly: Hepatic 4-HNE immunofluorescence (protein carbonyls) in rat NASH model. The source says:
Zucker (fa/fa) obese rats and Zucker (Fa/fa) lean rats (7-week old male animals obtained from Charles Rivers Laboratories, Wilmington, MA, USA) were maintained in individual cages (1 rat per cage to encourage sedentary activity) and had free access to standard rodent chow (Cat #5053 obtained from Labdiet, Saint Louis, MO) and water for (filtered and packed using a Hydrapak system) for 7 days until the start of the experiment. Zucker (fa/fa) obese rats were randomly assigned to two groups: 1) vehicle p.o.b.i.d. (oral administration, twice a day) for 78 days; and 2) 100 milligram per kilogram (mg/kg) body weight APL (p.o.b.i.d.) for 78 days. Zucker (Fa/fa) lean rats served as control. The APL dosage was 100 mg/kg/day. Animals were fed ad libitum. The animals were humanely euthanized, and the livers were removed for histological analysis. Liver samples in formalin were allowed to fix for 48 hours, and processed into FFPE blocks after fixations. Slides were stained with hematoxylin and eosin (H&E) and Mason trichrome staining.
Liver samples from the Zucker rats in Example 4 were stained with an anti-4HNE antibody from Abcam (catalog #ab46545) for immunofluorescent analysis of the presence of 4-HNE. The data are depicted in FIG. 9. FIG. 9A are representative images of 4-HNE immunofluorescence liver sections from Zucker (Fa/fa) lean rats, Zucker (fa/fa) obese rats administered vehicle, and Zucker (fa/fa) obese rats administered vehicle administered APL. FIG. 9B is a plot of the 4HNE immunofluorescence intensity per tissue area, and FIG. 9C is a plot of total tissue area. […] Cytotoxic lipid by products such as 4-HNE are known to be elevated in human NASH livers as compared to healthy livers. See e.g., Serviddio et al., Uncoupling protein-2 (UCP2) induces mitochondrial proton leak and increases susceptibility of non-alcoholic steatohepatitis (NASH) liver to ischaemia-reperfusion injury. Gut. 2008 July; 57(7):957-65. doi: 10.1136/gut.2007.147496. Epub 2008 Feb. 28. The data implies that 4-HNE plays a crucial role in the pathogenesis of NASH.

The subject of test [4] is 4-hydroxynonenal (4-HNE) in liver of C57BL/6J mice fed HFD. Put plainly: Hepatic 4-HNE immunofluorescence (protein carbonyls) in DIO mouse NASH model. The settings on record: 130 days. How it is done:
Liver samples from C57BL/6J mice fed chow and treated with vehicle, C57BL/6J mice fed HFD and treated with vehicle, and C57BL/6J mice fed HFD and treated with APL, as described in Example 1, were prepared and stained with an anti-4HNE antibody from Abcam (catalog #ab46545) for immunofluorescent analysis of the presence of 4-HNE. The APL dosage, administration frequency, and duration of treatment were as described in Example 1 (APL dosage administered to each animal was 200 milligrams per kilogram of body weight divided in two dosages per day, via oral gavage; treatment duration of 130 days; animals fed ad libitum). The data are depicted in FIG. 10. FIG. 10A are representative images of 4-HNE immunofluorescence liver sections from C57BL/6J mice fed chow and treated with vehicle, C57BL/6J mice fed HFD and treated with either vehicle or APL (TB-019) at 20× or 63× magnification. FIG. 10B is a plot of the 4-HNE immunofluorescence intensity per tissue area.

Setting [5] is: Zucker obese rats, 100 mg/kg APL p.o. b.i.d., 78 days, ***p<0.001.

Turning to `NCCCNCCCC[C@H](N)C(=O)O` [APL, (S)-2-amino-6-((3-aminopropyl)amino)hexanoic acid], the “AUC of GTT, obese rats treated with APL vs obese rats treated with vehicle” value in test [1] was “significantly lower”. In test [2] (APL 200 mg/kg p.o. b.i.d., vs HFD vehicle, ***p<0.001), the “NAS parameters: macrovesicular steatosis, microvesicular steatosis, hepatic hypertrophy, inflammatory foci (FIG. 6B)” value is reported as “statistically significant amelioration”. In test [2] (APL 200 mg/kg, ****p<0.0001), the “lobular inflammation score, treated group vs negative control (FIG. 7B)” value was “significant statistical difference”. Besides, in test [2] (APL 200 mg/kg/day divided into 2 doses, ****p<0.0001), the “NAS component scores: steatosis, lobular inflammation, hepatic ballooning (FIG. 7B), treated vs positive control” value is recorded as “significantly reduces”. Besides, the “hepatic 4-HNE intensity / total tissue area, treated vs negative control” value in test [3] (Zucker obese rats treated with APL vs lean control) is recorded as “No significant statistical difference”. In test [3] (setting [5]), the “hepatic 4-HNE immunofluorescence intensity per tissue area, treated vs obese vehicle” value is on record as “significantly reduces” and the “total liver tissue area (FIG. 9C), treated vs obese vehicle” value is “maintains the total liver tissue area”. The “protein carbonyls in liver (4-HNE immunofluorescence intensity per tissue area), treated vs HFD vehicle” value in test [4] (APL 200 mg/kg/day in two doses, oral gavage, ***p<0.001) is on record as “reduced”. For the same compound, in test [4] (APL 200 mg/kg/day), the “4-HNE immunofluorescence intensity per tissue area, treated vs negative control (chow vehicle)” value is on record as “No statistical difference”.
